Source: article PMC6934184, “Selective DNA-PKcs inhibition extends the therapeutic index of localized radiotherapy and chemotherapy” (The Journal of Clinical Investigation, 2019)

Biological target: T1, CDK7/cyclin H/MNAT1 (Homo sapiens, UniProt P50613)
T1 construct: purchased Thermo Fisher Scientific (Life Technologies) SelectScreen
Assay: SelectScreen Adapta
Assay type: biochemical
How it was run: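 SelectScreen broad panel; activity (Z'LYTE, Adapta) plus binding formats. ATP: Km app for CSF1R Z'LYTE; 10 for CAMK1 Adapta. Readout = % per kinase.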

T1 sequence (P50613 whole entry): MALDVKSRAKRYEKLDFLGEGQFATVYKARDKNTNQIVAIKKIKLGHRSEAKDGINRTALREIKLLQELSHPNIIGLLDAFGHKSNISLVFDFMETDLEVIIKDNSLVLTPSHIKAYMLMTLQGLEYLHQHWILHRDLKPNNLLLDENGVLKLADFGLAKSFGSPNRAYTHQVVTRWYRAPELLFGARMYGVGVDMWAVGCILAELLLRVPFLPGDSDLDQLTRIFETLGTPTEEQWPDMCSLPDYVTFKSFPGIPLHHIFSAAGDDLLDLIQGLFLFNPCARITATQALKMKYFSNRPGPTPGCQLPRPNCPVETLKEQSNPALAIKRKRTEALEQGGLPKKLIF
T1 sequence (P51946 whole entry partner): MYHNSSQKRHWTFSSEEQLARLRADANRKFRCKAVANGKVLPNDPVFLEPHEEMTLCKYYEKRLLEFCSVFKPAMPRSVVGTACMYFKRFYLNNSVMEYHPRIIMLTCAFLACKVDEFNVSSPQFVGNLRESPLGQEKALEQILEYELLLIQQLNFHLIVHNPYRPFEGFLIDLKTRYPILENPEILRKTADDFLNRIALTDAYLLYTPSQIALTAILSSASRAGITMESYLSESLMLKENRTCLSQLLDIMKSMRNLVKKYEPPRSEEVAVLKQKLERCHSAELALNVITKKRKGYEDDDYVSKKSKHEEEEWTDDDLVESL
T1 sequence (P51948 whole entry partner): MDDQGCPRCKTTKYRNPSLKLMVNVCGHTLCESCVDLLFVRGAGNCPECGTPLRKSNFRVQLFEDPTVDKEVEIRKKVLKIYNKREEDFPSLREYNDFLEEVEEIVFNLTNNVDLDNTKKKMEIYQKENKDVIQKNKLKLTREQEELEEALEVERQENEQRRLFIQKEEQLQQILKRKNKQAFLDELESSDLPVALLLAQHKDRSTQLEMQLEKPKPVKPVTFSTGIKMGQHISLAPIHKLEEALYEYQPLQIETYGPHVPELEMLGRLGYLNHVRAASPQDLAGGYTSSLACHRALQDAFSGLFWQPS

CN(C(=O)CN1CCOCC1)c1ccc2sc3c(-c4cccc5c(=O)cc(N6CC7CCC(C6)O7)oc45)cccc3c2c1 [NU5455]
inhibition at 1 µM: 5.3%
